Assay results from US6258806A, “Amine derivatives of oxo- and hydroxy- substituted hydrocarbons” (Narhex Limited, priority 1992, dated 2001).

Columns and labels:
[1] = system: Human Immunodeficiency Virus type 1 (HIV) strain #237228 in human peripheral blood lymphocytes (PBLs); test: Anti-HIV-1 antiviral activity in acutely infected peripheral blood lymphocytes (CPE and RT activity); format: cell-based, Human Immunodeficiency Virus type 1 (HIV); human cells; conditions: for IC100: Human immunodeficiency virus 1, 144 h, PBL cells, acute HIV-1 infection, day 6, concentration at which virus replication is inhibited (CPE negative or trace, >95% inhibition of RT activity); for antiviral index (Al), PBL cells: only non-toxic concentrations used, 8640 min
Text: (§1) The antiviral activity of representative compounds of the present invention has been determined at the Antivirals Laboratory, Fairfield Hospital, Fairfield, Victoria, Australia. In this test a stock solution of each compound was made in DMSO, then diluted in culture medium (RF 10) to 2× the final concentration required for test. The final concentration of DMSO was 1% or below. Approximately 250,000 continuous lymphocytes of human origin (MT2 cells) or 750,000 human peripheral blood lymphocytes (PBLs) were exposed to dilutions of each test compound, then immediately infected with Human Immunodeficiency Virus type 1 (HIV) strain #237228 (a clinical isolate obtained from a human source). The infectivity titers were expressed as tissue culture 50% infective dose (TCID50 per ml) with 1 TCID50 corresponding to the amount of supernatant required to infect 50% of the replicate cell cultures. The 250 and 200 TCID50 were used for MT2 and PBL cells respectively. The cell/drug/virus mixture was then incubated at 37° C./CO2 in a 24-well microtitre plate. Fresh amounts of the appropriate dilution of each drug were added to both MT2 and PBL cultures at day 3. At day 6, the extent of HIV-specific cytopathic effects (CPE) associated with each concentration of test compound in each of the cultures was rated according to the following scale:
(§2) 4+: 75-100% of cells showing 3+: good CPE
(§3) 3+: 50-75% of cells showing 2+: moderate CPE
(§4) 2+: 25-50% of cells showing 1+: low CPE
(§5) 1+: 5-25% of cells showing trace: minimal CPE
(§6) +/-: less than 5% CPE Negative: no CPE
(§7) The activity of the compounds at each concentration was also assessed by their ability to inhibit viron-associated reverse transcriptase (RT) activity in the culture supernates. At the time of rating of CPE, supernatant fluids from each well were removed and RT activity measured using a standard assay. CPE ratings of negative, ± (in MT2 cells) or trace (in PBLs), with greater than 95% inhibition of RT activity, was considered to represent IC100 (the concentration of compound at which the virus replication is inhibited). Control cultures included in each test were:
(§8) (a) HIV-infected cells in the absence of test compound.
(§9) (b) Uninfected cells in the absence of tested compound.
(§10) (c) Cell toxicity control consisting of uninfected cells treated with dilutions of test compound.
(§11) At the conclusion of each experiment, viable cells in these cultures, as determined by tryptan blue exclusion, were compared with the counts obtained in (b), above.

[2] = system: Human Immunodeficiency Virus type 1 (HIV) strain #237228 in MT2 cells; test: Anti-HIV-1 antiviral activity in acutely infected MT2 cells (CPE and RT activity); format: cell-based; conditions: for IC100: Human immunodeficiency virus 1, 144 h, acute HIV-1 infection, day 6, concentration at which virus replication is inhibited (CPE negative or ±, >95% inhibition of RT activity); for antiviral index (Al), MT2 cells: only non-toxic concentrations used, 8640 min
Text: as §1, §2, §3, §4, §5, §6, §7, §8, §9, §10, §11

[3] = molecular target: HIV-1 protease (Human immunodeficiency virus type 1 group M subtype B, UniProt P04585); test: HIV-1 protease-inhibiting activity; format: biochemical; conditions: half-maximal inhibition of HIV-1 protease
Text: The HIV protease-inhibiting activity of representative compounds of the present invention has been tested by known methods (Brinkworth, R. I., et al., Biochem. Biophys. Res. Commun. 176, 241, (1991); McLeod, D. A., et al., Bioorganic & Medicinal Chemistry Letters (1991) 653-658).

[4] = system: MT2 cells and PBLs; test: Toxicity to the cells (viable cells, trypan blue exclusion); format: cell-based, human; conditions: compared to AZT (azidothymidine), in words
Text: as §10, §11

| SMILES | IC100 [1] [µM] | antiviral index (Al), PBL cells [1] | IC100 [2] [µM] | antiviral index (Al), MT2 cells [2] | IC50 [3] [nM] | toxicity to the cells compared to AZT [4] |
| --- | --- | --- | --- | --- | --- | --- |
| CC(C)N(C[C@H](O)[C@H](Cc1ccccc1)NC(=O)[C@H](CC(N)=O)NC(=O)c1ccc2ccccc2n1)NC(=O)OC(C)(C)C [Compound 7B, t-Butyl 3-isogrooyl-3-[(2S, 3S)-2-hydroxy-3-(N-quinaldyl-L-asparaginyl)amino-4-phenylbutyl]carbazate] | 0.1 | > 200 | 0.1 | 200 | < 3.5 | lower toxicity to the cells |
| CC(C)N(C[C@@H](O)[C@H](Cc1ccccc1)NC(=O)[C@H](CC(N)=O)NC(=O)c1ccc2ccccc2n1)NC(=O)c1ccccc1NC(=O)OCc1ccccn1 [Compound 8, 1-(2-Pyridyl)methoxycarbonylanthranilyl-2-[(2R,3S)-2-hydroxy-3-(N-quinaldoyl-L-asparaginyl)amino4-phenylbutyl]-2-isopropyl-hydrazine] | 0.1 | > 100 | 0.1 | > 100 |  | lower toxicity to the cells |
| CC(C)(C)OC(=O)NN(C[C@H](O)[C@H](Cc1ccccc1)NC(=O)[C@H](CC(N)=O)NC(=O)c1ccc2ccccc2n1)C1CCCCC1 [Compound 17, t-Butyl 3-cyclohexyl-3-[(2S,3S)-2-hydroxy-3-(N-quinaldyl-L-asparaginyl)amino-4-phenylbutyl]carbazate] | 0.1 | 200 | 0.1 | 100 |  | lower toxicity to the cells |
| CC(C)N(C[C@@H](O)[C@H](Cc1ccccc1)NC(=O)[C@H](CC(N)=O)NC(=O)c1ccc2ccccc2n1)NC(=O)OC(C)(C)C [Compound 7A, t-Butyl 3-Isopropyl-3-[(2R,3S)-2-hydroxy-3-(N-quinaldyl-L-asparaginyl)amino-4-phenylbutyl]carbazate] | 1 | 25 | 1 | 50 | 7.3 ± 0.7 |  |
| CC(C)(C)OC(=O)N1CC2CCCCC2CN1CC(O)[C@H](Cc1ccccc1)NC(=O)[C@H](CC(N)=O)NC(=O)c1ccc2ccccc2n1 (stereo partly drawn) [Compound 2a, cis-1,6-3-t-Butoxycarbonyl-4-[(2RS,3S)-2-hydroxy-3-(N-quinaldyl-L-asparaginyl)amino-4-phenylbutyl]-3,4daza-bicylo[4.4.0]decane] | 0.1 | 100 | 0.1 | 50 | 5.4 ± 0.54 |  |
